Tests used:
Assay type in all cases: in vivo, rat
ZDF rats = assay: Dot blot analysis of kidney AGE subtypes (CML, CEL, pentosidine) in ZDF rats
Method: Kidney AGE values were determined by Dot blot analysis (Stracke et al., Exp. Clin. Endocrinol. Diabets 2002, 109, 330-336) and Reversed-phase high performance liquid chromatography or RP-HPLC (Drusch et al., Food Chem. 1999, 65, 547-553).
Kidney-samples for the dot blot analysis were obtained from 17-week-old male ZDF rats, control rats and ZDF rats treated for seven weeks with 30 mg/kg/d of compound (II-B) and 35 mg/kg/d of compound (III-B). Three animals of each group were sacrificed, the kidneys removed and immediately frozen in liquid nitrogen. Grinding of the kidneys was performed in liquid nitrogen using a freezer mill (Freezer 6750, C3 Analysetechnik GmbH). Kidney sample (10 mg) was dissolved in 1 ml phosphate buffered saline (PBS containing 0.5 g/l Tween 20, 0.5 mM PMSF, […]). The solution was treated two times for five seconds with an ultrasonic cell disrupter (45% power, Bandolin Sonoplus HD 2070), centrifuged for 20 minutes at 4000 rpm and the supernatant was used for dot blot analysis. The nitrocellulose membrane was placed in the dot blot apparatus and washed twice with Tris Buffered Saline (TBS), 100 μl TBS/well. For each sample, 10 μg protein (protein concentration of the samples were determined with the DC Protein Assay, Bio Rad) was diluted in 100 μl TBS and loaded on to the nitrocellulose membrane (Amersham). The membrane was incubated over night in TBS with Tween 20 (TBST; 20 mM Tris, 137 mM NaCl, 0.05% v/v Tween 20) with 5% non-fat dry milk at 4° C. and incubated for 1 hour at room temperature using the following antibody concentration: anti-CML 011 (Biologo) 0.25 μg/ml, anti-CEL (Biologo) 0.25 μg/ml and anti-pentosidine 012 (Biologo) 0.25 μg/ml. After extensive washing in TBST with 5% non-fat dry milk, membranes were exposed to […] anti-mouse IgG antibodies (Dianova) for one hour at room temperature. Membranes were washed again and exposed to the enhanced chemofluorescence detection system (Amersham) according to manufacturer's instructions. Relative fluorescence was determined with the Fluor-Imager 595 (Molecular Dynamics) and quantified using the Image-Quant software. Results were expressed in relative fluorescence (rf) times 10^5 (rf*10^5).

Wistar rats = assay: Albumin and creatinine excretion in Wistar rats (non-diabetic nephropathy); details: for Albumin/Creatinine: Wistar rats, start at age 6 months, mean
Method: The albumin and creatinine excretion in Wistar rats was determined. One group was left untreated, one was treated with the ACE/NEP inhibitor of formula (II-B) and one group was treated with the ACE inhibitor ramipril. Wistar rats are non-diabetic and develop proteinuria and structural kidney damage during adult life. Wistar rats are therefore a model for non-diabetic nephropathy. [table]

[1] = system: Zucker diabetic fatty rats; assay: HbA1c analysis in ZDF rats; details: for HbA1c, mean: ZDF rats
Method: Blood glucose and HbA1c was measured in 10- and 17-week-old male Zucker diabetic fatty rats (Genetic Model Inc.), control rats (Genetic Model Inc.) and male ZDF rats treated for seven weeks with 30 mg/kg/d of compound (II-B), 35 mg/kg/d of compound (III-B) and 1 mg/kg/d ramipril. Fifteen animals were analyzed in each group.
To obtain blood samples for HbA1c determination, disposable capillary tubes were used. HbA1c values were obtained from hemolyzed whole blood samples with a turbidimetric inhibition immunoassay (Tina-quant, Roche Diagnostics GmbH) and hemoglobin concentrations were determined in a second channel on an automated clinical chemistry analyzer (Boehringer Mannheim/Hitachi 912). HbA1c concentration in percent were calculated from HbA1c to total hemoglobin.

[2] = 17-week-old ZDF rats treated for seven weeks, dot blot

## CC(=O)S[C@H](C(=O)N[C@H]1Cc2ccccc2[C@H]2CCC[C@@H](C(=O)O)N2C1=O)C(C)C [cpd. (II-B)]
ZDF rats; [2]
  AGE-subtype CEL in the kidneys (anti-CEL), mean: 50.24 rf * 10^5
  AGE-subtype CML in the kidneys (anti-CML 011), mean: 32.62 rf * 10^5
  AGE-subtype pentosidine in the kidneys (anti-pentosidine 012), mean: 44.99 rf * 10^5
ZDF rats; diabetic rats, summary in words
  Kidney AGE (Nε-(carboxymethyl)lysine or CML) values: normalizes
ZDF rats; kidney, dot blot, in words
  AGE values for subtype CEL compared to untreated ZDF rats: significantly less
  AGE values for subtype CML compared to untreated ZDF rats: significantly less
  AGE values for subtype pentosidine compared to untreated ZDF rats: significantly less
Wistar rats; 6 weeks treatment
  Albumin/Creatinine: 18.07 mg/mmol
Wistar rats; 12 weeks treatment
  Albumin/Creatinine: 21.21 mg/mmol
Wistar rats; Basal
  Albumin/Creatinine: 130.45 mg/mmol
Wistar rats; non-diabetic model, in words
  Nephroprotective effect compared with ramipril as determined by the extent of proteinuria: significantly higher nephroprotective effect than ramipril
[1]; 17-week-old ZDF rats, in words
  HbA1c values compared to the untreated ZDF rats: significantly lower
[1]; age 10 weeks (start of treatment)
  HbA1c, mean: 5.69%
[1]; age 17 weeks (treated for seven weeks)
  HbA1c, mean: 8.24%
[1]; in words
  HbA1c value compared with the ACE inhibitor ramipril: lower values

Reference: US6930103B2, “Use of vasopeptidase inhibitors in the treatment of metabolic diseases, nephropathy and advanced glycation end-product associated diseases” (Aventis Pharma Deutschland GmbH, priority 2002, dated 2005)
